Measured values taken from patent publication US9060971B2, “Combination pharmaceutical agents as inhibitors of HCV replication” (Enanta Pharmaceuticals, Inc., priority 2010, dated 2015).

tested on: HCV 1b genotype replicon; assay: HCV replicon drug screening assay (quantitative RT-PCR or luciferase), genotype 1b; type: cell-based; conditions: Hepatitis C virus, read-out: Genotype-1b replicon EC50 Range
Excerpt: HCV replicon cell lines (kindly provided by R. Bartenschlager) isolated from colonies as described by Lohman et. al. (Lohman et al. (1999) Science 285: 110-113, expressly incorporated by reference in its entirety) and used for all experiments. The HCV replicon has the nucleic acid sequence set forth in EMBL Accession No.: AJ242651, the coding sequence of which is from nucleotides 1801 to 8406.
The coding sequence of the published HCV replicon was synthesized and subsequently assembled in a modified plasmid pBR322 (Promega, Madison, Wis.) using standard molecular biology techniques. One replicon cell line (“SGR 11-7”) stably expresses HCV replicon RNA which consists of (i) the HCV 5′UTR fused to the first 12 amino acids of the capsid protein, (ii) the neomycin phosphotransferase gene (neo), (iii) the IRES from encephalomyocarditis virus (EMCV), and (iv) HCV NS2 to NS5B genes and the HCV 3′UTR. Another replicon cell line (“Huh-luc/neo-ET”) described by Vrolijk et. al. (Vrolijk et. al. (2003) Journal of Virological Methods 110:201-209, expressly incorporated by reference in its entirety) stably expresses HCV replicon RNA which consists of (i) the HCV 5′UTR fused to the first 12 amino acids of the capsid protein, (ii) the firefly luciferase reporter gene, (iii) the ubiquitin gene, (iv) the neomycin phosphotransferase gene (neo), (v) the IRES from encephalomyocarditis virus (EMCV), and (vi) HCV NS3 to NS5B genes that harbor cell culture adaptive mutations (E1202G, T12801, K1846T) and the HCV 3′UTR.
These cell lines are maintained at 37° C., 5% CO2, 100% relative humidity in DMEM (Cat#11965-084, Invitrogen), with 10% fetal calf serum (“FCS”, Invitrogen), 1% non-essential amino acids (Invitrogen), 1% of Glutamax (Invitrogen), 1% of 100× penicillin/streptomycin (Cat#15140-122, Invitrogen) and Geneticin (Cat#10131-027, Invitrogen) at 0.75 mg/ml or 0.5 mg/ml for 11-7 and Huh-luc/neo-ET cells, respectively.
EC50 values of single agent compounds and combinations were determined by HCV RNA detection using quantitative RT-PCR, according to the manufacturer's instructions, with a TAQMAN® One-Step RT-PCR Master Mix Reagents Kit (Cat#AB 4309169, Applied Biosystems) on an ABI Model 7500 thermocycler. The TaqMan primers to use for detecting and quantifying HCV RNA are 5′-GCTGCGGCCTGTCGAGCT-3′ (SEQ ID NO: 1), 5′-CAAGGTCGTCTCCGCATAC-3′ (SEQ ID NO: 2) and the probe 5′-FAM-[…]-BHQ-3′ (SEQ ID NO: 3) obtained from Integrated DNA Technologies. HCV RNA is normalized to GAPDH RNA levels in drug-treated cells, which is detected and quantified using the Human GAPDH Endogenous Control Mix (Applied Biosystems, AB 4310884E). Total cellular RNA is purified from 96-well plates using the RNAqueous 96 kit (Ambion, Cat#AM1812). Chemical agent cytotoxicity was evaluated using an MTS assay according to the manufacturer's directions (Promega).
The compounds described herein can be effective against the HCV 1b genotype. It should also be understood that the compounds can inhibit multiple genotypes of HCV. In one embodiment, compounds of Formula (I) are active against the 1a, 1b, 2a, 2b, 3a, 4a, and 5a genotypes. […] The EC50 ranges were classified into the following groups: A>10 nM; B 1-10 nM; C<1 nM. The potential cytotoxicities of each agent were analyzed in parallel by MTS assay and are greater than 3 uM for all agents.

| SMILES | EC50 [nM] |
| --- | --- |
| COC(=O)N[C@@H](C(=O)N1CCC[C@H]1c1ncc(C(=O)Nc2ccc(NC(=O)c3cnc([C@@H]4CCCN4C(=O)[C@H](NC(=O)OC)c4ccccc4)[nH]3)cc2)[nH]1)c1ccccc1 [Compound 121] | 1 to 10 |

same assay, conditions: Hepatitis C virus; HCV 1b genotype replicon; quantitative RT-PCR or luciferase assay; read-out: Genotype-1b replicon EC50 Range

| SMILES | EC50 [nM] |
| --- | --- |
| COC(=O)N[C@H](C(=O)N1CCC[C@H]1c1nc(-c2ccc(C#Cc3ccc4[nH]c([C@@H]5CCCN5C(=O)OC(C)(C)C)nc4c3)cc2)c[nH]1)C(C)C [Compound 75] | 1 to 10 |
| COC(=O)N[C@H](C(=O)N1CCC[C@H]1c1nc2cc(C#Cc3ccc(-c4ccc5[nH]c([C@@H]6CCCN6C(=O)[C@@H](NC(=O)OC)C(C)C)nc5c4)cc3)ccc2[nH]1)C(C)C [Compound 33] | < 1 |
| COC(=O)N[C@H](C(=O)N1CCC[C@H]1c1nc(-c2ccc3cc(-c4ccc5[nH]c([C@@H]6CCCN6C(=O)[C@@H](NC(=O)OC)[C@@H](C)OC)nc5c4)ccc3c2)c[nH]1)[C@@H](C)OC [Compound 49] | < 1 |
| COC(=O)N[C@H](C(=O)N1CCC[C@H]1c1nc(-c2ccc(C#Cc3ccc4[nH]c([C@@H]5CCCN5C(=O)[C@H](NC(=O)OC)C(C)C)nc4c3)cc2)c[nH]1)C(C)C [Compound 83] | < 1 |
| COC(=O)N[C@H](C(=O)N1CCC[C@H]1c1nc(-c2ccc(CCc3ccc4[nH]c([C@@H]5CCCN5C(=O)[C@@H](NC(=O)OC)C(C)C)nc4c3)cc2)c[nH]1)C(C)C [Compound 71] | < 1 |
| COC(=O)N[C@H](C(=O)N1CCC[C@H]1c1ncc(-c2ccc(C#Cc3ccc4nc([C@@H]5CC[C@H](C)N5C(=O)[C@@H](NC(=O)OC)C(C)C)[nH]c4c3)cc2)[nH]1)C(C)C [Compound 108] | < 1 |
| CC[C@H](NC(=O)OC)C(=O)N1CCC[C@H]1c1nc2cc(C#Cc3ccc(-c4c[nH]c([C@@H]5CCCN5C(=O)[C@@H](NC(=O)OC)C(C)C)n4)cc3)ccc2[nH]1 [Compound 77] | < 1 |
| COC(=O)N[C@H](C(=O)N1CCC[C@H]1c1nc2cc(-c3ccc4nc(-c5ccc6[nH]c([C@@H]7CCCN7C(=O)[C@@H](NC(=O)OC)C(C)C)nc6c5)ncc4c3)ccc2[nH]1)C(C)C [Compound 21] | < 1 |
| COC(=O)N[C@H](C(=O)N1CCC[C@H]1c1nc(-c2ccc(/C=C/c3ccc4[nH]c([C@@H]5CCCN5C(=O)[C@@H](NC(=O)OC)C(C)C)nc4c3)cc2)c[nH]1)C(C)C [Compound 69] | < 1 |
| COC(=O)N[C@@H](C(=O)N1CCC[C@H]1c1cc(-c2ccc(C#Cc3ccc4[nH]c([C@@H]5CCCN5C(=O)[C@H](NC(=O)OC)c5ccccc5)nc4c3)cc2)n[nH]1)c1ccccc1 [Compound 41] | < 1 |
| COC(=O)N[C@@H](C(=O)N1CCC[C@H]1c1nc2cc(CC=Cc3ccc4nc([C@@H]5CCCN5C(=O)[C@H](NC(=O)OC)c5ccccc5)[nH]c4c3)ccc2[nH]1)c1ccccc1 [Compound 30] | < 1 |
| COC(=O)N[C@@H](C)C(=O)N1CCC[C@H]1c1nc2cc(C#Cc3ccc(-c4c[nH]c([C@@H]5CCCN5C(=O)[C@@H](NC(=O)OC)C(C)C)n4)cc3)ccc2[nH]1 [Compound 76] | < 1 |
| COC(=O)N[C@H](C(=O)N1CCC[C@H]1c1nc(-c2ccc3cc(-c4ccc5[nH]c([C@@H]6CCCN6C(=O)[C@H](NC(=O)OC)c6ccccc6)nc5c4)ccc3c2)c[nH]1)[C@@H](C)OC [Compound 51] | < 1 |
| COC(=O)N[C@H](C(=O)N1CCC[C@H]1c1nc(-c2ccc(C#Cc3ccc4[nH]c([C@@H]5CCCN5C(=O)[C@@H](NC(=O)OC)[C@@H](C)OC)nc4c3)cc2)c[nH]1)[C@@H](C)OC [Compound 59] | < 1 |
| COC(=O)N[C@H](C(=O)N1CCC[C@H]1c1nc(-c2ccc(OCc3ccc4[nH]c([C@@H]5CCCN5C(=O)[C@@H](NC(=O)OC)C(C)C)nc4c3)cc2)c[nH]1)C(C)C [Compound 44] | < 1 |
| COCCOC(=O)N[C@H](C(=O)N1CCC[C@H]1c1nc2cc(-c3ccc(-c4ccc5[nH]c([C@@H]6CCCN6C(=O)[C@@H](NC(=O)OCCOC)C(C)C)nc5c4)cc3)ccc2[nH]1)C(C)C [Compound 23] | > 10 |

| SMILES | EC50 [nM] |
| --- | --- |
| COC(=O)N[C@H](C(=O)N1CCC[C@H]1c1nc2cc(C#Cc3ccc(-c4c[nH]c([C@@H]5CCCN5C(=O)OC(C)(C)C)n4)cc3)ccc2[nH]1)C(C)C [Compound 85] | < 1 |
| COC(=O)N[C@H](C(=O)N1CCC[C@H]1c1ncc(-c2ccc(CCCc3ccc4[nH]c([C@@H]5CCCN5C(=O)[C@@H](NC(=O)OC)C(C)C)nc4c3)cc2)[nH]1)C(C)C [Compound 43] | < 1 |
| COC(=O)N[C@H](C(=O)N1CCC[C@H]1c1ncc(-c2ccc(C#Cc3ccc4nc([C@@H]5CCCN5C(=O)[C@@H](NC(=O)OC)C(C)(C)O)[nH]c4c3)cc2)[nH]1)C(C)C [Compound 100] | < 1 |
| COC(=O)N[C@H](C(=O)N1CCC[C@H]1c1nc(-c2ccc(CCCc3ccc4nc([C@@H]5CCCN5C(=O)[C@@H](NC(=O)OC)C(C)C)[nH]c4c3)s2)c[nH]1)C(C)C [Compound 47] | < 1 |
| COC(=O)N[C@H](C(=O)N1CCC[C@H]1c1nc(-c2ccc(C#Cc3cc(F)c4[nH]c([C@@H]5CCCN5C(=O)[C@@H](NC(=O)OC)C(C)C)nc4c3)cc2)c[nH]1)C(C)C [Compound 64] | < 1 |
| COC(=O)N[C@H](C(=O)N1CCC[C@H]1c1ncc(-c2ccc(C#Cc3ccc4nc([C@@H]5C6CCC(CC6)N5C(=O)[C@@H](NC(=O)OC)C(C)C)[nH]c4c3)cc2)[nH]1)C(C)C [Compound 125] | < 1 |
| COC(=O)N[C@H](C(=O)N1CC2(CC2)C[C@H]1c1nc(-c2ccc(C#Cc3ccc4[nH]c([C@@H]5CCCN5C(=O)[C@@H](NC(=O)OC)C(C)C)nc4c3)cc2)c[nH]1)C(C)C [Compound 94] | < 1 |
| COC(=O)N[C@H](C(=O)N1CCC[C@H]1c1nc(-c2ccc(C#Cc3ccc4[nH]c([C@@H]5CCCN5C(=O)[C@@H](NC(=O)OC)C(C)C)nc4n3)cc2)c[nH]1)C(C)C [Compound 113] | < 1 |
| COC(=O)N[C@H](C(=O)N1CCC[C@H]1c1ncc(-c2ccc(C#Cc3ccc4nc([C@@H]5C[C@H]6C[C@H]6N5C(=O)[C@@H](NC(=O)OC)C(C)C)[nH]c4c3)cc2)[nH]1)C(C)C [Compound 107] | < 1 |
| C=C(c1ccc(-c2c[nH]c([C@@H]3CCCN3C(=O)[C@@H](NC(=O)OC)C(C)C)n2)cc1)c1ccc2nc([C@@H]3CCCN3C(=O)[C@@H](NC(=O)OC)C(C)C)[nH]c2c1 [Compound 70] | < 1 |
| COC(=O)N[C@H](C(=O)N1CCC[C@H]1c1nc(-c2ccc(C#Cc3ccc4[nH]c([C@@H]5C[C@@H](O)CN5C(=O)[C@@H](NC(=O)OC)C(C)C)nc4c3)cc2)c[nH]1)C(C)C [Compound 91] | < 1 |
| COC(=O)N[C@@H](C(=O)N1CCC[C@H]1c1ncc(C(=O)N[C@H]2CC[C@H](NC(=O)c3cnc([C@@H]4CCCN4C(=O)[C@H](NC(=O)OC)c4ccccc4)[nH]3)CC2)[nH]1)c1ccccc1 [Compound 120] | > 10 |
| COC(=O)N[C@H](C(=O)N1CCC[C@H]1c1ncc(-c2ccc(C#Cc3ccc4nc([C@@H]5C[C@H](F)CN5C(=O)[C@@H](NC(=O)OC)C(C)C)[nH]c4c3)cc2)[nH]1)C(C)C [Compound 109] | < 1 |
| COC(=O)N[C@@H](CC(C)C)C(=O)N1CCC[C@H]1c1nc2cc(-c3ccc(-c4ccc5[nH]c([C@@H]6CCCN6C(=O)[C@H](CC(C)C)NC(=O)OC)nc5c4)cc3)ccc2[nH]1 [Compound 25] | < 1 |
| COC(=O)N[C@H](C(=O)N1CCC[C@H]1c1nc(-c2ccc(C#Cc3ccc4[nH]c([C@@H]5CCCN5C(=O)[C@@H](OC(=O)OC)C(C)C)nc4c3)cc2)c[nH]1)C(C)C [Compound 62] | < 1 |
| COC(=O)N[C@H](C(=O)N1CCC[C@H]1c1nc(-c2ccc3cc(-c4cc5nc([C@@H]6CCCN6C(=O)[C@@H](NC(=O)OC)C(C)C)[nH]c5cc4Cl)ccc3c2)c[nH]1)C(C)C [Compound 68] | < 1 |
